{"source": "patent US20150201661A1", "about": "“BAMBOO EXTRACTS, COMPOSITIONS AND USES THEREOF” (priority 2014, published 2015)", "format_in_all_cases": "in vivo, Pseudosciaena crocea", "key": {"[1]": {"test": "Body weight and fat content of large yellow croaker", "conditions": "5 months, feed with GBE 3.0 g/kg or astaxanthin 1.0 g/kg", "from_the_text": "(§1) Yellow croaker fish (Pseudosciaena crocea) are an important marine economic fish in China. One thousand and eight hundred of large yellow croakers with the average weight of 150.06±11.35 g, were randomly selected into three groups (each group represented by three replicates of 200 large yellow croakers each). The GBE group and astaxanthin group were feed with complete formula puffed pellet feed rich in 3.0 g/kg of GBE and 1.0 g/kg of astaxanthin, respectively. Astaxanthin is an accepted dietary additive, but is quite expensive. The reference group was feed with chilled miscellaneous fish and shrimp. The breeding time was five months. Feeding was stopped 24 h after the test. Eight test large yellow croakers were randomly selected from each replicate group (that is, 24 test large yellow croakers each group). The selected fish were weighed, the livers were segmented, and the abdominal and back muscles examined after they were killed. Adequate amount of fresh back and abdominal muscle were used for sensory evaluation, the rest were sub-packaged and stored on −20° C. refrigerator for further use. The fat content of liver and fish and the superoxide dismutase (SOD) activity, catalase (CAT) activity, malondialdehyde (MDA) content, leptin content, adiponectin content of liver were detected."}, "leptin": {"test_system": "leptin", "test": "Leptin level in the liver of large yellow croaker", "conditions": "5 months, feed with GBE 3.0 g/kg or astaxanthin 1.0 g/kg", "from_the_text": "as §1"}, "adiponectin": {"test_system": "adiponectin", "test": "Adiponectin level in the liver of large yellow croaker", "conditions": "5 months, feed with GBE 3.0 g/kg or astaxanthin 1.0 g/kg", "from_the_text": "as §1"}, "[2]": {"test_system": "superoxide dismutase (SOD)", "test": "SOD activity in liver of large yellow croaker", "conditions": "5 months, feed with GBE 3.0 g/kg or astaxanthin 1.0 g/kg", "from_the_text": "as §1"}, "catalase (CAT)": {"test_system": "catalase (CAT)", "test": "CAT activity in liver of large yellow croaker", "conditions": "5 months, feed with GBE 3.0 g/kg or astaxanthin 1.0 g/kg", "from_the_text": "as §1"}, "malondialdehyde (MDA)": {"test_system": "malondialdehyde (MDA)", "test": "MDA content (lipid peroxidation) in liver of large yellow croaker", "conditions": "5 months, feed with GBE 3.0 g/kg or astaxanthin 1.0 g/kg", "from_the_text": "as §1"}, "back muscle tissue": {"test_system": "back muscle tissue", "test": "Transmission electron microscopy of back muscle of large yellow croakers", "conditions": "FIG. 4", "from_the_text": "as §1"}}, "note": "Marks after values point to notes of the source that are not given here.", "data": [{"smiles": "CC1=C(/C=C/C(C)=C/C=C/C(C)=C/C=C/C=C(C)/C=C/C=C(C)/C=C/C2=C(C)C(=O)[C@@H](O)CC2(C)C)C(C)(C)C[C@H](O)C1=O", "note": "[ASTA, astaxanthin]", "values": [{"measurement": "overall body weight vs reference group", "setting": "[1]; FIG. 3", "result": "no significant differences"}, {"measurement": "fat content of liver vs reference group", "setting": "[1]; p<0.05", "result": "significantly lower"}, {"measurement": "fat content of muscle vs reference group", "setting": "[1]; p<0.05", "result": "significantly lower"}, {"measurement": "LEPTIN level in the liver", "setting": "leptin", "result": "1.08 ± 0.12^b ng/mL"}, {"measurement": "ADIPONECTIN level in the liver", "setting": "adiponectin", "result": "2.57 ± 0.33^c ug/mL"}, {"measurement": "SOD activity in the liver", "setting": "[2]", "result": "157.35 ± 10.24^a U/mg prot"}, {"measurement": "CAT activity in the liver", "setting": "catalase (CAT)", "result": "22.56 ± 3.11^a U/mg prot"}, {"measurement": "CAT/SOD ratio in the liver", "setting": "catalase (CAT)", "result": "0.13 ± 0.01^a"}, {"measurement": "MDA level in the liver", "setting": "malondialdehyde (MDA)", "result": "118 ± 9.33", "unit": "nmol/mg prot"}, {"measurement": "clearance of muscle bundle, order of groups", "setting": "back muscle tissue; TEM 10000 times", "result": "reference group<GBE group<astaxanthin group"}, {"measurement": "quantity of mitochondria, order of groups", "setting": "back muscle tissue; TEM 12000 times", "result": "reference group<GBE group<astaxanthin group"}]}]}
